Measured values published in patent publication US20230295181A1, “INHIBITOR OF APOPTOSIS (IAP) PROTEIN ANTAGONISTS” (Sanford Burnham Prebys Medical Discovery Institute, priority 2020, published 2023).
Counter-ions that a name gives are not always drawn.

Tested on: SKOV-3 cancer cell lines
Assay: SKOV-3 cell viability after treatment with 10 μM test compound
Assay type: cell-based
Conditions: for % viability after treatment with 10 micromolar of test compound (SKOV-3 cells): 10 micromolar test compound; for viability at 10 µM: Homo sapiens, SK-OV-3, 10 micromolar test compound, SKOV-3 cells
Experimental: SKOV-3 cancer cell lines were treated with a test compound, either as a pure enantiomer or a mixture of stereoisomers, at a concentration of 10 μM. Cell viability was evaluated following treatment with a compound as disclosed in Table B. Viability of cancer cells following treatment is indicated according to the following legend:
A=0-25% viability B=26-50% viability C=>50% viability

Row | SMILES | % viability after treatment with 10 micromolar of test compound (SKOV-3 cells) (hydrochloride) | viability at 10 µM [%] | other results
1 | C=CCC1(CC=C)C[C@@H]2OCC[C@H](NC(=O)[C@H](C)NC)C(=O)N2[C@@H]1C(=O)NC(c1ccccc1)c1ccccc1 [Compound 49, (4S)-8,8-diallyl-N-benzhydryl-4-((S)-2-(methylamino)propanamido)-5-oxooctahydropyrrolo[2,1-b][1,3]oxazepine-7-carboxamide hydrochloride] | B (B=26-50% viability) |  | 
2 | CCC1(CC)C[C@@H]2SCC[C@H](NC(=O)[C@H](C)NC)C(=O)N2[C@@H]1C(=O)N[C@@H]1CCCc2ccccc21 [Compound 35, (4S,9aS)-8,8-diethyl-4-((S)-2-(methylamino)propanamido)-5-oxo-N—((R)-1,2,3,4-tetrahydronaphthalen-1-yl)octahydropyrrolo[2,1-b][1,3]thiazepine-7-carboxamide hydrochloride] | A (A=0-25% viability) |  | 
3 | CN[C@@H](C)C(=O)N[C@H]1CCO[C@H]2CC(C)(C)[C@@H](CN[C@@H]3CCSc4ccccc43)N2C1=O [Compound 67, (S)—N-((4S,7S,9aS)-8,8-dimethyl-5-oxo-7-((((R)-thiochroman-4-yl)amino)methyl)octahydropyrrolo[2,1-b][1,3]oxazepin-4-yl)-2-(methylamino)propanamide dihydrochloride] |  |  | % viability after treatment with 10 micromolar of test compound (SKOV-3 cells) (dihydrochloride): B (B=26-50% viability)
4 | CCC1(CC)C[C@@H]2OCC[C@H](NC(=O)[C@H](C)NC)C(=O)N2[C@@H]1C(=O)NC(c1ccccc1)c1ccccc1 [Compound 59, (4S)—N-benzhydryl-8,8-diethyl-4-((S)-2-(methylamino)propanamido)-5-oxooctahydropyrrolo[2,1-b][1,3]oxazepine-7-carboxamide hydrochloride] | A (A=0-25% viability) |  | 
5 | C=CCC1C[C@@H]2SCC[C@H](NC(=O)[C@H](C)NC)C(=O)N2[C@@H]1C(=O)N[C@@H]1CCCc2ccccc21 (stereo partly drawn) [Compound 30, (4S,9aS)-8,8-allyl-4-((S)-2-(methylamino)propanamido)-5-oxo-N—((R)-1,2,3,4-tetrahydronaphthalen-1-yl)octahydropyrrolo[2,1-b][1,3]thiazepine-7-carboxamide hydrochloride] | B (B=26-50% viability) |  | 
6 | C=CCC1(CC=C)C[C@@H]2OCC[C@H](NC(=O)[C@H](C)NC)C(=O)N2[C@@H]1C(=O)NC(c1ccccc1)c1ccccc1 [Compound 50, (4S)-8,8-diallyl-N-benzhydryl-4-((S)-2-(methylamino)propanamido)-5-oxooctahydropyrrolo[2,1-b][1,3]oxazepine-7-carboxamide hydrochloride] | B (B=26-50% viability) |  | 
7 | CN[C@@H](C)C(=O)N[C@H]1CCOC2c3ccncc3C(C(=O)N[C@@H]3CCCc4ccccc43)N2C1=O (stereo partly drawn) [Compound 4, (4S)-4-((S)-2-(methylamino)propanamido)-5-oxo-N—((R)-1,2,3,4-tetrahydronaphthalen-1-yl)-2,3,4,5,7,11b-hexahydropyrido[4′,3′:3,4]pyrrolo[2,1-b][1,3]oxazepine-7-carboxamide dihydrochloride] |  | > 50 | 
8 | CCC1(CC)C[C@@H]2SCC[C@H](NC(=O)[C@H](C)NC)C(=O)N2[C@@H]1C(=O)N[C@@H]1CCCc2ccccc21 [Compound 39, (4S,9aS)-8,8-diethyl-4-((S)-2-(methylamino)propanamido)-5-oxo-N—((R)-1,2,3,4-tetrahydronaphthalen-1-yl)octahydropyrrolo[2,1-b][1,3]thiazepine-7-carboxamide hydrochloride] | B (B=26-50% viability) |  | 
9 | CN[C@@H](C)C(=O)N[C@H]1CCO[C@H]2CC(CCc3ccccc3)(CCc3ccccc3)[C@@H](C(=O)N[C@@H]3CCCc4ccccc43)N2C1=O [Compound 26, (4S,9aS)-4-((S)-2-(methylamino)propanamido)-5-oxo-8,8-diphenethyl-N—((R)-1,2,3,4-tetrahydronaphthalen-1-yl)octahydropyrrolo[2,1-b][1,3]oxazepine-7-carboxamide hydrochloride] | C (C=>50% viability) |  | 
10 | CN[C@@H](C)C(=O)N[C@H]1Cc2ccc(OC)cc2[C@H]2CC(C)(C)[C@H](C(=O)N[C@@H]3CCCc4ccccc43)N2C1=O [Compound 10, (6S,11bR)-10-methoxy-2,2-dimethyl-6-((S)-2-(methylamino)propanamido)-5-oxo-N—((R)-1,2,3,4-tetrahydronaphthalen-1-yl)-2,3,5,6,7,11b-hexahydro-1H-benzo[c]pyrrolo[1,2-a]azepine-3-carboxamide hydrochloride] |  | 26 to 50 | 
11 | CN[C@@H](C)C(=O)N[C@H]1CCO[C@H]2CC(CCc3ccccc3)(CCc3ccccc3)[C@@H](C(=O)NC(c3ccccc3)c3ccccc3)N2C1=O [Compound 62, (4S)—N-benzhydryl-4-((S)-2-(methylamino)propanamido)-5-oxo-8,8-diphenethyloctahydropyrrolo[2,1-b][1,3]oxazepine-7-carboxamide hydrochloride] |  | > 50 | 
12 | C=CCC1(CC=C)C[C@@H]2OCC[C@H](NC(=O)[C@H](C)NC)C(=O)N2[C@@H]1C(=O)NC(c1ccccc1)c1ccccc1 [Compound 52, (4S)-8,8-diallyl-N-benzhydryl-4-((S)-2-(methylamino)propanamido)-5-oxooctahydropyrrolo[2,1-b][1,3]oxazepine-7-carboxamide hydrochloride] | B (B=26-50% viability) |  | 
13 | CN[C@@H](C)C(=O)N[C@H]1CCO[C@H]2CC(CCc3ccccc3)(CCc3ccccc3)[C@@H](C(=O)N[C@@H]3CCCc4ccccc43)N2C1=O [Compound 24, (4S,9aS)-4-((S)-2-(methylamino)propanamido)-5-oxo-8,8-diphenethyl-N—((R)-1,2,3,4-tetrahydronaphthalen-1-yl)octahydropyrrolo[2,1-b][1,3]oxazepine-7-carboxamide hydrochloride] | B (B=26-50% viability) |  | 
14 | CN[C@@H](C)C(=O)N[C@H]1CCO[C@H]2CC(CCc3ccccc3)(CCc3ccccc3)[C@H](C(=O)N[C@@H]3CCCc4ccccc43)N2C1=O [Compound 22, (4S,9aS)-4-((S)-2-(methylamino)propanamido)-5-oxo-8,8-diphenethyl-N—((R)-1,2,3,4-tetrahydronaphthalen-1-yl)octahydropyrrolo[2,1-b][1,3]oxazepine-7-carboxamide hydrochloride] |  | 0 to 25 | 
15 | CN[C@@H](C)C(=O)N[C@H]1Cc2ccc(OC)cc2[C@H]2CC(C)(C)C(C(=O)NC(c3ccccc3)c3ccccc3)N2C1=O (single isomer, unassigned) [Compound 6, hydrochloride] |  | 26 to 50 | 
16 | C#CCO[C@@H]1Cc2ccccc2[C@@H]1NC(=O)[C@H]1N2C(=O)[C@@H](NC(=O)[C@H](C)NC)CCS[C@H]2CC1(C)C [Compound 83, (2S)-1-{[(4S,7S,9aS)-8,8-Dimethyl-5-oxo-7-{[(1S,2R)-2-(prop-2-yn-1-yloxy)-2,3-dihydro-1H-inden-1-yl]carbamoyl}octahydropyrrolo[2,1-b][1,3]thiazepin-4-yl]amino}-N-methyl-1-oxopropan-2-ammonium chloride] |  | 0 to 25 | 
17 | CN[C@@H](C)C(=O)N[C@H]1CCO[C@H]2CC(C)(C)[C@@H](CN[C@@H]3CCOc4ccccc43)N2C1=O [Compound 73, (S)—N-((4S,7S,9aS)-7-((((R)-chroman-4-yl)amino)methyl)-8,8-dimethyl-5-oxooctahydropyrrolo[2,1-b][1,3]oxazepin-4-yl)-2-(methylamino)propanamide dihydrochloride] |  | 26 to 50 | 
18 | C=CCC1C[C@@H]2OCC[C@H](NC(=O)[C@H](C)NC)C(=O)N2[C@@H]1C(=O)NC(c1ccccc1)c1ccccc1 (stereo partly drawn) [Compound 53, (4S)-8,8-allyl-N-benzhydryl-4-((S)-2-(methylamino)propanamido)-5-oxooctahydropyrrolo[2,1-b][1,3]oxazepine-7-carboxamide hydrochloride] |  | 26 to 50 | 
19 | CN[C@@H](C)C(=O)N[C@H]1Cc2cc(OC)ccc2[C@H]2CC(C)(C)[C@H](C(=O)N[C@@H]3CCCc4ccccc43)N2C1=O [Compound 8, (6S,11bR)-9-methoxy-2,2-dimethyl-6-((S)-2-(methylamino)propanamido)-5-oxo-N—((R)-1,2,3,4-tetrahydronaphthalen-1-yl)-2,3,5,6,7,11b-hexahydro-1H-benzo[c]pyrrolo[1,2-a]azepine-3-carboxamide hydrochloride] |  | 26 to 50 | 
20 | C=CCC1(CC=C)C[C@@H]2OCC[C@H](NC(=O)[C@H](C)NC)C(=O)N2[C@@H]1C(=O)NC(c1ccccc1)c1ccccc1 [Compound 51, (4S)-8,8-diallyl-N-benzhydryl-4-((S)-2-(methylamino)propanamido)-5-oxooctahydropyrrolo[2,1-b][1,3]oxazepine-7-carboxamide hydrochloride] | B (B=26-50% viability) |  | 
21 | CN[C@@H](C)C(=O)N[C@H]1CCS[C@H]2CC(CCc3ccccc3)[C@@H](C(=O)N[C@@H]3CCCc4ccccc43)N2C1=O (stereo partly drawn) [Compound 46, (4S,9aS)-4-((S)-2-(methylamino)propanamido)-5-oxo-8,8-phenethyl-N—((R)-1,2,3,4-tetrahydronaphthalen-1-yl)octahydropyrrolo[2,1-b][1,3]thiazepine-7-carboxamide hydrochloride] | B (B=26-50% viability) |  | 
22 | CN[C@@H](C)C(=O)N[C@H]1CCO[C@H]2CC(C(C)C)(C(C)C)[C@@H](C(=O)NC(c3ccccc3)c3ccccc3)N2C1=O [Compound 60, (4S)—N-benzhydryl-8,8-diisopropyl-4-((S)-2-(methylamino)propanamido)-5-oxooctahydropyrrolo[2,1-b][1,3]oxazepine-7-carboxamide hydrochloride] | A (A=0-25% viability) |  | 
